Read-outs that look alike come from different tables or passages of the source.
Target: T1, Chk1 (Homo sapiens, UniProt O14757)
T1 construct: purchased Upstate Biotechnology
T1 sequence (O14757 1-476): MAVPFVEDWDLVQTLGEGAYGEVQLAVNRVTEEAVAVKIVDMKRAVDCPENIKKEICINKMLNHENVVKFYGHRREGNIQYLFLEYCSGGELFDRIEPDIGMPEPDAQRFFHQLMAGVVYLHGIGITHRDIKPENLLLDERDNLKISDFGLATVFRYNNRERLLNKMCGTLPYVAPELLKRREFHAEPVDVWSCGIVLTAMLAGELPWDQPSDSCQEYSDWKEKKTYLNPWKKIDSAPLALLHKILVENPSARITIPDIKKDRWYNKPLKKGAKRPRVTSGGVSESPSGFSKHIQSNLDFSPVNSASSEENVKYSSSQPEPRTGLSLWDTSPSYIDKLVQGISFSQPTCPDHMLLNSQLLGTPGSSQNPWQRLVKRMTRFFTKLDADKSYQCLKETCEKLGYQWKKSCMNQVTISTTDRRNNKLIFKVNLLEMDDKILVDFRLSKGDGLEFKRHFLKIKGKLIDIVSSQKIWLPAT
Assay: Chk1 kinase assay: incorporation of γ-33P ATP into immobilized myelin basic protein
Assay type: biochemical
Conditions: read-out: Chk1 IC50
Method in brief: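 Incorporation of γ-33P into myelin basic protein coated on plates was scintillation-counted after 1 h at room temperature, duplicate points. Unlabeled ATP was 10 μM with 10 nM Chk1, 30 μM with 20 nM Chk2; buffer Hepes pH 7.6, MgCl2, DTT, 1% DMSO. Output IC50, optionally converted to Ki.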

[1] = Table 11, Chk1 only, class symbols A-D

| IC50 [1] | IC50 | Compound | also measured |
| --- | --- | --- | --- |
| – | 50 to 1000 nM | CNC(=O)c1nc(-c2cccc(NC(=O)c3ccc(C)cc3)c2)cnc1N [Example 119, 3-amino-N-methyl-6-(3-{[(4-methylphenyl)carbonyl]amino}phenyl)pyrazine-2-carboxamide] | – |
| – | 1000 to 10000 nM | CNC(=O)c1nc(-c2ccc(S(C)(=O)=O)cc2)cnc1N [Example 87, 3-amino-N-methyl-6-[4-(methylsulfonyl)phenyl]pyrazine-2-carboxamide] | – |
| < 50 nM | – | Nc1ncc(-c2cccc(C(=O)NCc3cc(F)cc(F)c3F)c2)nc1C(=O)N[C@H]1CCCNC1 [Example 1030, 3-amino-N-[(3S)-piperidin-3-yl]-6-[3-({[(2,3,5-trifluorophenyl)methyl]amino}carbonyl)phenyl]pyrazine-2-carboxamide] | – |
| – | 50 to 1000 nM | CNC(=O)c1nc(-c2cccc(C(=O)NCc3c(Cl)cccc3Oc3ccccc3)c2)cnc1N [Example 247, 3-amino-6-{3-[({[2-chloro-6-(phenyloxy)phenyl]methyl}amino)carbonyl]phenyl}-N-methylpyrazine-2-carboxamide] | – |
| – | 1000 to 10000 nM | CCNC(=O)c1nc(-c2cccc(C(=O)NCc3c(F)cccc3Cl)c2)cnc1N [Example 273, 3-amino-6-[3-({[(2-chloro-6-fluorophenyl)methyl]amino}carbonyl)phenyl]-N-ethylpyrazine-2-carboxamide] | – |
| < 50 nM | – | Nc1ncc(-c2cccc(CNC(=O)c3ccc(-c4ccc([N+](=O)[O-])cc4)o3)c2)nc1C(=O)N[C@H]1CCCNC1 [Example 986, 3-Amino-6-[3-({[5-(4-nitro-phenyl)-furan-2-carbonyl]-amino}-methyl)-phenyl]-pyrazine-2-carboxylic acid (3S)-piperidin-3-ylamide] | – |
| < 50 nM | – | Nc1ncc(-c2cccc(CNC(=O)c3ccc(Cl)cc3)c2)nc1C(=O)N[C@H]1CCCNC1 [Example 884, 3-amino-6-[3-({[(4-chlorophenyl)carbonyl]amino}methyl)phenyl]-N-[(3S)-piperidin-3-yl]pyrazine-2-carboxamide] | – |
| < 50 nM | – | Cc1ccc(C)c(CNC(=O)c2cccc(-c3cnc(N)c(C(=O)N[C@H]4CCCNC4)n3)c2)c1 [Example 1036, 3-amino-6-[3-({[(2,5-dimethylphenyl)methyl]amino}carbonyl)phenyl]-N-[(3S)-piperidin-3-yl]pyrazine-2-carboxamide] | – |
| – | 50 to 1000 nM | CNC(=O)c1nc(-c2cccc(C(=O)NCc3cc(F)ccc3F)c2)cnc1N [Example 337, 3-amino-6-[3-({[(2,5-difluorophenyl)methyl]amino}carbonyl)phenyl]-N-methylpyrazine-2-carboxamide] | – |
| – | 50 to 1000 nM | CNC(=O)c1nc(-c2cccc(C(=O)NCc3cc(Cl)ccc3F)c2)cnc1N [Example 277, 3-amino-6-[3-({[(5-chloro-2-fluorophenyl)methyl]amino}carbonyl)phenyl]-N-methylpyrazine-2-carboxamide] | – |

The remaining lines, values behind:

| Compound | IC50 [1] | IC50 | also measured |
| --- | --- | --- | --- |
| Nc1ncc(-c2cccc(C(=O)NCc3ccc(F)c(F)c3F)c2)nc1C(=O)N[C@H]1CCCNC1 [Example 1016, 3-amino-N-[(3S)-piperidin-3-yl]-6-[3-({[(2,3,4-trifluorophenyl)methyl]amino}carbonyl)phenyl]pyrazine-2-carboxamide] | < 50 nM | – | – |
| CNC(=O)c1nc(-c2cccc(C(=O)NCc3ccc4c(c3)CCO4)c2)cnc1N [Example 207, 3-amino-6-(3-{[(2,3-dihydro-1-benzofuran-5-ylmethyl)amino]carbonyl}phenyl)-N-methylpyrazine-2-carboxamide] | – | 50 to 1000 nM | – |
| CNC(=O)c1nc(-c2cccc(CNC(CN(C)C)c3ccccc3)c2)cnc1N (stereo not drawn) [Example 511, 3-amino-6-[3-({[2-(dimethylamino)-1-phenylethyl]amino}methyl)phenyl]-N-methylpyrazine-2-carboxamide] | – | – | IC50 (Table 11, Chk1 only): 50 to 1000 nM |
| Nc1ncc(-c2cccc(C(=O)NCc3ccc(F)c(Br)c3)c2)nc1C(=O)N[C@H]1CCNC1 [Example 817, 3-amino-6-[3-({[(3-bromo-4-fluorophenyl)methyl]amino}carbonyl)phenyl]-N-[(3S)-pyrrolidin-3-yl]pyrazine-2-carboxamide] | < 50 nM | – | – |
| CNC(=O)c1nc(-c2cccc(C(=O)NCc3c(C)cccc3Cl)c2)cnc1N [Example 250, 3-amino-6-[3-({[(2-chloro-6-methylphenyl)methyl]amino}carbonyl)phenyl]-N-methylpyrazine-2-carboxamide] | – | 50 to 1000 nM | – |
| CNC(=O)c1nc(-c2cccc(CNC3CCc4c(F)cc(F)cc43)c2)cnc1N (stereo not drawn) [Example 474, 3-amino-6-(3-{[(4,6-difluoro-2,3-dihydro-1H-inden-1-yl)amino]methyl}phenyl)-N-methylpyrazine-2-carboxamide] | – | – | IC50 (Table 11, Chk1 only): 50 to 1000 nM |
| Nc1ncc(-c2cccc(CNC(=O)c3ccc4ccccc4c3)c2)nc1C(=O)N[C@H]1CCCNC1 [Example 893, 3-amino-6-(3-{[(naphthalen-2-ylcarbonyl)amino]methyl}phenyl)-N-[(3S)-piperidin-3-yl]pyrazine-2-carboxamide] | < 50 nM | – | – |
| Nc1ncc(-c2cccc(C(=O)NCc3ccccc3)c2)nc1-c1nc(-c2ccccc2)n(-c2ccccc2)n1 [Example 670, 3-[5-amino-6-(1,5-diphenyl-1H-1,2,4-triazol-3-yl)pyrazin-2-yl]-N-(phenylmethyl)benzamide] | – | – | IC50 (Table 11, Chk1 only): ≥ 10000 nM |
| NC(=O)c1nc(-c2ccc3ccccc3c2)cnc1N [Example 27, 3-amino-6-naphthalen-2-ylpyrazine-2-carboxamide] | – | ≥ 10000 nM | – |
| Cc1ccc(F)cc1CNC(=O)c1cccc(-c2cnc(N)c(C(=O)N[C@H]3CCCNC3)n2)c1 [Example 1031, 3-amino-6-[3-({[(5-fluoro-2-methylphenyl)methyl]amino}carbonyl)phenyl]-N-[(3S)-piperidin-3-yl]pyrazine-2-carboxamide] | < 50 nM | – | – |
| Nc1ncc(-c2cccc(NC(=O)Cc3cccc(C(F)(F)F)c3)c2)nc1C(=O)N[C@H]1CCCNC1 [Example 976, 3-amino-N-[(3S)-piperidin-3-yl]-6-[3-({[3-(trifluoromethyl)phenyl]acetyl}amino)phenyl]pyrazine-2-carboxamide] | < 50 nM | – | – |
| CNC(=O)c1nc(-c2cccc(C(=O)NCc3cccc(-c4ccccc4)c3)c2)cnc1N [Example 224, 3-amino-6-(3-{[(biphenyl-3-ylmethyl)amino]carbonyl}phenyl)-N-methylpyrazine-2-carboxamide] | – | 50 to 1000 nM | – |
| CC(C)(C)OC(=O)N1CCC[C@H](NC(=O)c2nc(-c3cccc(CN)c3)cnc2N)C1 [Example 841, 1,1-dimethylethyl (3S)-3-[({3-amino-6-[3-(aminomethyl)phenyl]pyrazin-2-yl}carbonyl)amino]piperidine-1-carboxylate] | 50 to 1000 nM | – | – |
| Nc1ncc(-c2cccc(CO)c2)nc1-c1nc(C2CCCCN2)n[nH]1 (stereo not drawn) [Example 698, {3-[5-amino-6-(3-piperidin-2-yl-1H-1,2,4-triazol-5-yl)pyrazin-2-yl]phenyl}methanol] | – | – | IC50 (Table 11, Chk1 only): ≥ 10000 nM |
| C/C(=N\N1CCCCCC1)c1nc(-c2cccc(C(=O)NCc3ccccc3)c2)cnc1N [Example 674, 3-{5-amino-6-[(1E)-N-azepan-1-ylethanimidoyl]pyrazin-2-yl}-N-(phenylmethyl)benzamide] | – | – | IC50 (Table 11, Chk1 only): 50 to 1000 nM |
| N#Cc1ccc(N/N=C/c2nc(-c3cccc(C(=O)NCc4ccccc4)c3)cnc2N)cc1 [Example 679, 3-(5-amino-6-{(E)-[(4-cyanophenyl)hydrazono]methyl}pyrazin-2-yl)-N-(phenylmethyl)benzamide] | – | – | IC50 (Table 11, Chk1 only): ≥ 10000 nM |
| Nc1ncc(-c2cccc(OCCN3CCOCC3)c2)nc1C(=O)N[C@H]1CCCNC1 [Example 960, 3-amino-6-{3-[(2-morpholin-4-ylethyl)oxy]phenyl}-N-[(3S)-piperidin-3-yl]pyrazine-2-carboxamide] | 50 to 1000 nM | – | – |
| Nc1ncc(-c2cccc(CO)c2)nc1-c1nc(-c2ccc(Cl)cc2)n[nH]1 [Example 581, (3-{5-amino-6-[3-(4-chlorophenyl)-1H-1,2,4-triazol-5-yl]pyrazin-2-yl}phenyl)methanol] | – | – | IC50 (Table 11, Chk1 only): ≥ 10000 nM |
| CC(C)(C)OC(=O)N1CC[C@H](NC(=O)c2nc(-c3cccc(C(=O)NC(C)(C)c4ccccc4)c3)cnc2N)C1 [Example 800, 1,1-dimethylethyl (3S)-3-({[3-amino-6-(3-{[(1-methyl-1-phenylethyl)amino]carbonyl}phenyl)pyrazin-2-yl]carbonyl}amino)pyrrolidine-1-carboxylate] | – | – | IC50 (Table 11, Chk1 only): ≥ 10000 nM |
| CNC(=O)c1nc(-c2cncnc2)cnc1N [Example 233, 3-amino-N-methyl-6-pyrimidin-5-ylpyrazine-2-carboxamide] | – | ≥ 10000 nM | – |
| CNC(=O)c1nc(-c2cccc(C(=O)NCC3CCCCC3)c2)cnc1N [Example 126, 3-amino-6-(3-{[(cyclohexylmethyl)amino]carbonyl}phenyl)-N-methylpyrazine-2-carboxamide] | – | 50 to 1000 nM | – |
| CNC(=O)c1nc(-c2cccc(C(=O)NCc3ccc(F)cc3Cl)c2)cnc1N [Example 370, 3-amino-6-[3-({[(2-chloro-4-fluorophenyl)methyl]amino}carbonyl)phenyl]-N-methylpyrazine-2-carboxamide] | – | 50 to 1000 nM | – |
| CNC(=O)c1nc(-c2cccc(CNC3CCc4c(OCCN5CCOCC5)cccc43)c2)cnc1N (stereo not drawn) [Example 514, 3-amino-N-methyl-6-{3-[({4-[(2-morpholin-4-ylethyl)oxy]-2,3-dihydro-1H-inden-1-yl}amino)methyl]phenyl}pyrazine-2-carboxamide] | – | – | IC50 (Table 11, Chk1 only): 50 to 1000 nM |
